Laboratory results reported in PMC10800876, “Evaluation of proline-rich antimicrobial peptides as potential lead structures for novel antimycotics against Cryptococcus neoformans” (Frontiers in Microbiology, 2024).
Like-named read-outs stand apart in the source and are kept apart here.

Key:
[1] = test system: C. neoformans KN99α (serotype A, mating type MATα); experiment: microbe, parasite or virus in culture; conditions: Cryptococcus neoformans
C. neoformans 1841 [2] = experiment: Antifungal activity assay (CFU on SAB agar); assay type: cell-based, Cryptococcus neoformans; conditions: treatment 3 h, 30 °C, mean ± SD, n = 4; for cell count C. neoformans 1841, 24 h: CFU counted after 24 h; for cell count C. neoformans 1841, 48 h: CFU counted after 48 h
C. neoformans H99 = experiment: Antifungal activity assay (CFU on SAB agar); assay type: cell-based, Cryptococcus neoformans; conditions: treatment 3 h, 30 °C, mean ± SD, n = 4; for cell count C. neoformans H99, 24 h: CFU counted after 24 h; for cell count C. neoformans H99, 48 h: CFU counted after 48 h
C. neoformans KN99α = experiment: Antifungal activity assay (CFU on SAB agar); assay type: cell-based, Cryptococcus neoformans; conditions: treatment 3 h, 30 °C, mean ± SD, n = 4; for cell count C. neoformans KN99α, 24 h: CFU counted after 24 h; for cell count C. neoformans KN99α, 48 h: CFU counted after 48 h
[3] = test system: C. neoformans strains 1841, H99, and KN99α; experiment: Broth microdilution assay (MIC); assay type: cell-based, Cryptococcus neoformans
[4] = test system: C. neoformans 1841 (serotype D); experiment: microbe, parasite or virus in culture; conditions: Cryptococcus neoformans
[5] = test system: C. neoformans H99 (serotype A); experiment: microbe, parasite or virus in culture; conditions: Cryptococcus neoformans
C. neoformans 1841 [6] = experiment: Time-kill assay; assay type: cell-based, Cryptococcus neoformans; conditions: 2.5 μmol/L, 30°C, up to 24 h
Procedure: The kinetic effects of the antifungal activity were determined by diluting overnight cultures to 5 × 10^4 CFU/mL with 50% SAB in phosphate buffer. Aqueous peptide solutions (20 μL) were added to the cell suspension (80 μL) to give a final peptide concentration of 2.5 μmol/L. Samples were incubated at 30°C on an orbital shaker (750 rpm, Titramax 1,000, Heidolph Instruments GmbH & Co. KG) for 24 h. Before incubation (0 min) and after 45 min, 90 min, 3 h, 6 h, and 24 h incubation, aliquots (10 μL) of samples were taken and diluted with phosphate buffer (10 mmol/L, pH 7.5) to observe countable cell colonies. Aliquots (100 μL) of the diluted cell suspensions were plated on SAB agar plates. Plates were incubated at 30°C and colonies were counted after 24 h.

[7] = test system: C. neoformans 1841 (serotype D); conditions: broth microdilution, 50% SAB in phosphate buffer pH 7.5, 5 × 10^4 CFU/mL, 30°C
[8] = test system: C. neoformans strains 1841, H99, and KN99α; experiment: Antifungal activity assay (CFU); assay type: cell-based, Cryptococcus neoformans; conditions: only small colonies appearing after more than 24 h
[9] = test system: C. neoformans KN99α (serotype A, mating type MATα); conditions: broth microdilution, 50% SAB in phosphate buffer, 30°C, n = 6
[10] = test system: C. neoformans H99 (serotype A); conditions: broth microdilution, 50% SAB in phosphate buffer, 30°C, n = 6
[11] = 24 h, read-out: MIC (mg/L) KN99α 24 h
[12] = 24 h, read-out: MIC (μmol/L) KN99α 24 h
[13] = 48 h, read-out: MIC (mg/L) KN99α 48 h
[14] = 48 h, read-out: MIC (μmol/L) KN99α 48 h
[15] = Cryptococcus neoformans, read-out: MIC
[16] = 24 h, pH 7.5, read-out: MIC (μmol/L) 1841 24 h
[17] = 24 h, read-out: MIC (mg/L) 1841 24 h
[18] = 48 h, pH 7.5, read-out: MIC (μmol/L) 1841 48 h
[19] = 48 h, read-out: MIC (mg/L) 1841 48 h
[20] = 24 h, read-out: MIC (mg/L) H99 24 h
[21] = 24 h, read-out: MIC (μmol/L) H99 24 h
[22] = 48 h, read-out: MIC (mg/L) H99 48 h
[23] = 48 h, read-out: MIC (μmol/L) H99 48 h

| Molecule | MIC [1, 11] [mg/L] | MIC [1, 12] [µmol/L] | cell count C. neoformans 1841, 24 h (C. neoformans 1841 [2]; 0.25 µmol/L) | cell count C. neoformans 1841, 48 h (C. neoformans 1841 [2]; 0.25 µmol/L) | cell count C. neoformans 1841, 24 h (C. neoformans 1841 [2]; 2.5 µmol/L) | cell count C. neoformans 1841, 48 h (C. neoformans 1841 [2]; 2.5 µmol/L) | cell count C. neoformans 1841, 24 h (C. neoformans 1841 [2]; 25 µmol/L) | cell count C. neoformans 1841, 48 h (C. neoformans 1841 [2]; 25 µmol/L) | cell count C. neoformans H99, 24 h (C. neoformans H99; 0.25 µmol/L) | cell count C. neoformans H99, 48 h (C. neoformans H99; 0.25 µmol/L) | cell count C. neoformans H99, 24 h (C. neoformans H99; 2.5 µmol/L) | cell count C. neoformans H99, 48 h (C. neoformans H99; 2.5 µmol/L) | cell count C. neoformans H99, 24 h (C. neoformans H99; 25 µmol/L) | cell count C. neoformans H99, 48 h (C. neoformans H99; 25 µmol/L) | cell count C. neoformans KN99α, 24 h (C. neoformans KN99α; 0.25 µmol/L) | cell count C. neoformans KN99α, 48 h (C. neoformans KN99α; 0.25 µmol/L) | cell count C. neoformans KN99α, 24 h (C. neoformans KN99α; 2.5 µmol/L) | cell count C. neoformans KN99α, 48 h (C. neoformans KN99α; 2.5 µmol/L) | cell count C. neoformans KN99α, 24 h (C. neoformans KN99α; 25 µmol/L) | cell count C. neoformans KN99α, 48 h (C. neoformans KN99α; 25 µmol/L) | other results |
| --- | --- | --- | --- | --- | --- | --- | --- | --- | --- | --- | --- | --- | --- | --- | --- | --- | --- | --- | --- | --- | --- |
| OC(Cn1cncn1)(Cn1cncn1)c1ccc(F)cc1F [Fluconazole, fluconazole, reference compound] | 4 | 13 | 2.5 ± 0.0 x 10^4 CFU/mL | 2.5 ± 0.0 x 10^4 CFU/mL | 2.7 ± 0.2 x 10^4 CFU/mL | 2.7 ± 0.2 x 10^4 CFU/mL | 1.9 ± 0.3 x 10^4 CFU/mL | 1.9 ± 0.3 x 10^4 CFU/mL | 3.4 ± 0.5 x 10^4 CFU/mL | 3.8 ± 0.3 x 10^4 CFU/mL | 3.4 ± 0.4 x 10^4 CFU/mL | 3.5 ± 0.4 x 10^4 CFU/mL | 3.3 ± 0.8 x 10^4 CFU/mL | 3.5 ± 0.8 x 10^4 CFU/mL | 2.9 ± 0.5 x 10^4 CFU/mL | 3.0 ± 0.6 x 10^4 CFU/mL | 3.3 ± 0.6 x 10^4 CFU/mL | 3.4 ± 0.7 x 10^4 CFU/mL | 3.2 ± 0.5 x 10^4 CFU/mL | 3.3 ± 0.5 x 10^4 CFU/mL | MIC [1, 13]: 8 mg/L; MIC [1, 14]: 26 µmol/L; MIC [3]: 4 to 32 µg/mL; MIC [3, 15]: 13 to 105 µM; MIC [4, 16]: 105 µmol/L; MIC [4, 17]: 32 mg/L; MIC [4, 18]: 105 µmol/L; MIC [4, 19]: 32 mg/L; MIC [5, 20]: 16 mg/L; MIC [5, 21]: 53 µmol/L; MIC [5, 22]: 16 to 32 mg/L; MIC [5, 23]: 53 to 105 µmol/L |
| Nc1[nH]c(=O)ncc1F [Flucytosine, flucytosine, reference compound] | 128 | 992 | 2.2 ± 0.1 x 10^4 CFU/mL | 2.2 ± 0.1 x 10^4 CFU/mL | 2.4 ± 0.2 x 10^4 CFU/mL | 2.4 ± 0.2 x 10^4 CFU/mL | 2.4 ± 0.0 x 10^4 CFU/mL | 2.4 ± 0.0 x 10^4 CFU/mL | 3.1 ± 0.8 x 10^4 CFU/mL | 3.2 ± 0.7 x 10^4 CFU/mL | 3.7 ± 0.4 x 10^4 CFU/mL | 3.9 ± 0.3 x 10^4 CFU/mL | 3.1 ± 0.5 x 10^4 CFU/mL | 3.3 ± 0.6 x 10^4 CFU/mL | 3.4 ± 0.7 x 10^4 CFU/mL | 3.4 ± 0.8 x 10^4 CFU/mL | 3.1 ± 0.5 x 10^4 CFU/mL | 3.2 ± 0.5 x 10^4 CFU/mL | 3.3 ± 0.5 x 10^4 CFU/mL | 3.3 ± 0.5 x 10^4 CFU/mL | MIC [1, 13]: > 128 mg/L; MIC [1, 14]: > 992 µmol/L; MIC [3]: ≥ 64 µg/mL; MIC [3, 15]: ≥ 496 µM; MIC [4, 16]: 496 µmol/L; MIC [4, 17]: 64 mg/L; MIC [4, 18]: 992 µmol/L; MIC [4, 19]: 128 mg/L; MIC [5, 20]: 64 mg/L; MIC [5, 21]: 496 µmol/L; MIC [5, 22]: > 128 mg/L; MIC [5, 23]: > 992 µmol/L |
| gu-OIOIORPVYOPRPRPPHPRL-OH [Api795] | – | – | 1.4 ± 0.6 x 10^4 CFU/mL | 1.4 ± 0.6 x 10^4 CFU/mL | 2.1 ± 0.1 x 10^4 CFU/mL | 2.1 ± 0.1 x 10^4 CFU/mL | 0.2 ± 0.0 x 10^4 CFU/mL | 0.2 ± 0.0 x 10^4 CFU/mL | 3.3 ± 0.3 x 10^4 CFU/mL | 3.6 ± 0.6 x 10^4 CFU/mL | 1.4 ± 0.4 x 10^4 CFU/mL | 2.0 ± 0.2 x 10^4 CFU/mL | 0.1 ± 0.0 x 10^4 CFU/mL | 0.5 ± 0.2 x 10^4 CFU/mL | 2.9 ± 0.3 x 10^4 CFU/mL | 2.9 ± 0.4 x 10^4 CFU/mL | 1.7 ± 0.7 x 10^4 CFU/mL | 1.9 ± 0.8 x 10^4 CFU/mL | 0.1 ± 0.1 x 10^4 CFU/mL | 0.4 ± 0.1 x 10^4 CFU/mL | time-dependent antifungal effect (C. neoformans 1841 [6]): delayed antifungal effect; MIC (μmol/L) 1841 24 h ([7]; read after 24 h, mean of six replicates (n = 6)): 1.6 µmol/L; MIC (μmol/L) 1841 48 h ([7]; read after 48 h, n = 6): 3.2 µmol/L; colony formation on agar [8]: delayed colony formation; MIC (mg/L) KN99α 24 h ([9]; read after 24 h): 4 to 8 mg/L; MIC (μmol/L) KN99α 24 h ([9]; read after 24 h): 1.6 to 3.2 µmol/L; MIC (μmol/L) KN99α 48 h ([9]; read after 48 h): 3.2 µmol/L; MIC (μmol/L) H99 24 h ([10]; read after 24 h): 3.2 µmol/L; MIC (μmol/L) H99 48 h ([10]; read after 48 h): 3.2 µmol/L |
